Tests used:
AR M895T = AR M895T (Homo sapiens, UniProt P10275, M895T/M896T); experiment: cell-based; conditions: IC50 (antagonistic activity)
[1] = In vivo pharmacokinetics in male NMRI mice; conditions: mouse, plasma
Method: BAY 1024767 was administered to 6-7 week-old male NMRI mice in the tail vein by a single dose of 0.5 mg/kg and intragastral by a single dose of 1 mg/kg formulated in PEG400/water (60/40). Three mice were sacrificed at different time points after dosing, and blood (for heparinized plasma) was sampled from the vena cava. Analysis of the samples was performed by LC/MS/MS and pharmacokinetic parameters were calculated by non-compartmental analysis.

AR T877A = AR T877A (Homo sapiens, UniProt P10275, T878A); experiment: cell-based; conditions: IC50 (antagonistic activity)
AR wild-type = molecular target: T1, AR wild-type (Homo sapiens, UniProt P10275); experiment: cell-based; conditions: IC50 (antagonistic activity)
T1 sequence (P10275 1-920): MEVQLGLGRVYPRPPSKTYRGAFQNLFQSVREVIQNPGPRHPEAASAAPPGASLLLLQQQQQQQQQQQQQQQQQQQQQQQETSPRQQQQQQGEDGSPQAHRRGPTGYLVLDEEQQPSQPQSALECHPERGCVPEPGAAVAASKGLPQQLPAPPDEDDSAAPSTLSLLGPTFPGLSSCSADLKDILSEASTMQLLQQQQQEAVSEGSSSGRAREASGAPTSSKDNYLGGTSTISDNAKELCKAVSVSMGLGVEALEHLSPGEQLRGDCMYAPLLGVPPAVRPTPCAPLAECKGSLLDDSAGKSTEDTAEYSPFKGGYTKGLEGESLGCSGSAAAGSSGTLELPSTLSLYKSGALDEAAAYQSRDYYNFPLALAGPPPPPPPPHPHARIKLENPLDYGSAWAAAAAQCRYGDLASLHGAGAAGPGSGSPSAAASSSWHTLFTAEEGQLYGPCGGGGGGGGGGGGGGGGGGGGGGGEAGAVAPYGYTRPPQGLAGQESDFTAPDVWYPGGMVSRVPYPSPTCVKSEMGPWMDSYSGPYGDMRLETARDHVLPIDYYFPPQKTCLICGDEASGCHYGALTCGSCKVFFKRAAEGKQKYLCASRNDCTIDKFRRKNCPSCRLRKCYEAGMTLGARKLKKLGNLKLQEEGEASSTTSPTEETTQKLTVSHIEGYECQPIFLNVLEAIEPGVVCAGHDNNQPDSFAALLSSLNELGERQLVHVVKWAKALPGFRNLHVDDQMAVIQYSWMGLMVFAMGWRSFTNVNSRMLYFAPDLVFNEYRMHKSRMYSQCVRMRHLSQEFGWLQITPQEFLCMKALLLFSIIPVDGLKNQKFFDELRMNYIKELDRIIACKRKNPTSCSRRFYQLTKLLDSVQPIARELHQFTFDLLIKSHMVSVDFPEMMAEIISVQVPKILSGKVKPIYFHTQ

AR V715M = AR V715M (Homo sapiens, UniProt P10275, V716M); experiment: cell-based; conditions: IC50 (antagonistic activity)
[2] = test system: Dunning R3327-G prostate cancer model; experiment: Anti-tumor efficacy in the syngeneic Dunning rat R3327-G model; format: in vivo
Method: The Dunning R3327-G tumor [51] was maintained by serial in vivo passages. For the efficacy experiment, tumor tissue pieces of 8 mm^3 were inoculated subcutaneously (flank region) in 12-13 week-old male Copenhagen rats (COP/CrCrl strain, Charles River Laboratories). Treatment was started once the tumor reached 50 mm^2 and rats were randomly assigned to control (n = 9), castrated (n = 10) or treatment group (n = 10). In the treatment group 40 mg/kg of BAY 1024767 was given orally once a day (p.o., QD). The vehicle was NMP/PEG 1/9 (v/v). Rat body weight was measured at least twice a week. Tumor volume and weight were determined as above.

[3] = Metabolic stability in liver microsomes; format: in vitro ADME; conditions: 1 μM, calculated from half-life
Method: The metabolic stability of BAY 1024767 was determined by incubating the compound with suspensions of liver microsomes from different species at a concentration of 1 μM. The intrinsic clearance was calculated from the half-life of the compound. Together with additional parameters like microsomal protein content, species-specific liver weight and liver blood flow, the hepatic in vivo blood clearance (CLH) was calculated.

[4] = Unbound plasma concentrations after multiple oral doses in male SCID mice; format: in vivo, mouse; conditions: multiple oral doses of 50 mg/kg every second day
Excerpt: Pharmacokinetic profiles in mouse.
indicate in vitro unbound anti-proliferative GI50 values measured in VCaP cells. Unbound concentrations -/+ SD for 2-3
(1 picture or pasted object on this page, not shown here)

[5] = test system: AR wild-type and mutants L701H, E709Y, V715M, W741C, H874Y, F876L, T877A, M895T and M895V; experiment: Transactivation assay, agonistic mode, transfected PC-3 cells, panel of AR variants; format: cell-based, human; conditions: all AR variants tested; no R1881 added with test compound; luciferase after 20 h
Method: Competitive binding to recombinant human AR was determined in presence of 5 nM tritiated R1881. PC-3 transfection and determination of luciferase activity were performed as before [49]. The test compounds were added with 0.1% ethanol (agonistic mode) or the indicated R1881 concentrations (antagonistic mode). The average value of six wells treated in parallel was taken. The experiments were repeated at least twice independently.

[6] = test system: PSA and FKBP5 expression in LNCaP cells (AR T877A mutant); experiment: mRNA expression of androgen target genes (real-time PCR); format: cell-based, human; conditions: 1 nM R1881, 24 h
Method: (§1) VCaP or LNCaP cells were seeded into 6-well plates in RPMI 1640 medium without phenol red, supplemented with 10% charcoal-stripped fetal calf serum (cFCS) and 2 mM stable glutamine, and maintained for 2 days prior to treatment. […] After 24 h treatment, total RNA was extracted using the RNeasy Mini Kit (Qiagen, Hilden, Germany) and reverse-transcription was performed using the SuperScript™ III First-Strand Synthesis SuperMix for qRT-PCR (Invitrogen, Carlsbad, […]). Transcript levels of AR target genes were determined by real-time PCR using the following assays (Applied Biosystems, Foster City, CA, USA): PSA Hs02576345_m1 and FKBP5 Hs00188025_m1. Human PPIA (Cyclophilin A) 4326316E was used as an internal control.

[7] = test system: PSA and FKBP5 expression in VCaP cells (AR wild-type); experiment: as above; format: cell-based, human; conditions: 1 nM R1881, 24 h
Method: as §1

`CC(C)(O)COc1ccc(CN2C(=S)N(c3ccc(C#N)c(C(F)(F)F)c3)C(=O)C2(C)C)cn1` [BAY 1024767] gave an IC50 (AR M895T; R1881 1 nM) of 37 nM, an IC50 (AR M895T; R1881 10 nM) of 220 nM and a clearance ([1]; iv, 0.5 mg/kg i.v., read-out: CLB (blood clearance) (converted)) of 1 mL/min/kg. For the same molecule, the Vd ([1]; iv, 0.5 mg/kg i.v., read-out: VSS (volume of distribution)) was 0.61 L/kg, the bioavailability ([1]; oral, 1 mg/kg intragastral vs 0.5 mg/kg i.v., read-out: F (oral bioavailability)) was 99% and the IC50 (AR T877A; R1881 0.1 nM) was 320 nM. It also gave an IC50 (AR T877A; R1881 1 nM) of 1100 nM, an IC50 (AR wild-type; R1881 0.1 nM) of 46 nM and an IC50 (AR wild-type; R1881 1 nM) of 260 nM. It also gave an IC50 (AR wild-type; R1881 10 nM) of 1600 nM, an IC50 (AR V715M; R1881 0.1 nM) of 52 nM and an IC50 (AR V715M; R1881 1 nM) of 240 nM. The body weight ([2]; 40 mg/kg p.o. daily) was “No significant body weight loss”, the tumor volumes ([2]; 40 mg/kg p.o. daily) was “significant anti-tumor efficacy” and the seminal vesicle weight ([2]; 40 mg/kg p.o. daily, comparable to castrated group, data not shown) was “strong inhibition”. The “% T/C (tumor weight)” value ([2]; 40 mg/kg p.o. qdx49, day 113 post-tumor implantation) was 11%, the CLH ([3]; dog liver microsomes) was 4.5 mL/min/kg and the CLH ([3]; human liver microsomes) was 5.83 mL/min/kg. For the same molecule, the CLH ([3]; monkey liver microsomes) was 11.7 mL/min/kg, the CLH ([3]; mouse liver microsomes) was 3.17 mL/min/kg and the CLH ([3]; rat liver microsomes) was 4.67 mL/min/kg. For the same molecule, the “unbound plasma concentrations versus unbound anti-proliferative GI50 in VCaP cells” value [4] was “remained over the unbound anti-proliferative GI50 values”, the “agonistic effect” value [5] was “No dose-dependent agonistic activity” and the “PSA and FKBP5 expression” value [6] was “dose-dependent down-regulations”. The “PSA and FKBP5 expression” value [7] was “dose-dependent down-regulations”.
